Experimental data published in PubChem BioAssay AID1963833 (Molecular Pharmacology Branch, DTP, NCI, 2024).

Test system: 883617-216-R-J1-PDC complex spheroid viability
Test: Anticancer human tumor 883617-216-R-J1-PDC patient-derived bladder carcinoma cell line growth inhibition [POLQ]
Details: for IC50: curve of first compound; for viability, T/C: stronger effect = lower value
Method in brief: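 PDC + HUVEC + MSC complex spheroids; POLQ inhibitors ± partner drugs; top conc. at/near clinical Cmax, else 10 microM (SN-38 1 microM), half-log dilutions; 37 degrees C, 5% CO2.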

[1] = second compound 0.0316 µM, first compound 0.0316 µM
[2] = second compound 0.0316 µM, first compound 0.1 µM
[3] = second compound 0.0316 µM, first compound 0.316 µM
[4] = second compound 0.0316 µM, first compound 1 µM
[5] = second compound 0.0316 µM, first compound 3.16 µM
[6] = second compound 0.0316 µM, first compound 10 µM
[7] = second compound 0.1 µM, first compound 0.0316 µM
[8] = second compound 0.1 µM, first compound 0.1 µM
[9] = second compound 0.1 µM, first compound 0.316 µM
[10] = second compound 0.1 µM, first compound 1 µM
[11] = second compound 0.1 µM, first compound 3.16 µM
[12] = second compound 0.1 µM, first compound 10 µM
[13] = second compound 0.316 µM, first compound 0.0316 µM
[14] = second compound 0.316 µM, first compound 0.1 µM
[15] = second compound 0.316 µM, first compound 0.316 µM
[16] = second compound 0.316 µM, first compound 1 µM
[17] = second compound 0.316 µM, first compound 3.16 µM
[18] = second compound 0.316 µM, first compound 10 µM
[19] = second compound 1 µM, first compound 0.0316 µM
[20] = second compound 1 µM, first compound 0.1 µM
[21] = second compound 1 µM, first compound 0.316 µM
[22] = second compound 1 µM, first compound 1 µM
[23] = second compound 1 µM, first compound 3.16 µM
[24] = second compound 1 µM, first compound 10 µM
[25] = second compound 3.16 µM, first compound 0.0316 µM
[26] = second compound 3.16 µM, first compound 0.1 µM
[27] = second compound 3.16 µM, first compound 0.316 µM
[28] = second compound 3.16 µM, first compound 1 µM
[29] = second compound 3.16 µM, first compound 3.16 µM
[30] = second compound 3.16 µM, first compound 10 µM
[31] = second compound 10 µM, first compound 0.0316 µM
[32] = second compound 10 µM, first compound 0.1 µM
[33] = second compound 10 µM, first compound 0.316 µM
[34] = second compound 10 µM, first compound 1 µM
[35] = second compound 10 µM, first compound 3.16 µM
[36] = second compound 10 µM, first compound 10 µM
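Further: spheroids exposed to compounds for seven days before readout.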
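Wherever viability, T/C is given: 100% = DMSO vehicle control viability.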

C=CC(=O)N1CCN(c2nc(=O)n(-c3c(C)ccnc3C(C)C)c3nc(-c4c(O)cccc4F)c(F)cc23)C(C)C1 (stereo not given) + Nc1ccc(C#CCN(C(=O)Cc2ncc(C(F)(F)F)cc2C(F)(F)F)c2ccc(F)cc2)nn1
IC50 (second compound 0.0316 µM): > 10 µM
IC50 (second compound 0.1 µM): > 10 µM
IC50 (second compound 0.316 µM): > 10 µM
IC50 (second compound 1 µM): > 10 µM
IC50 (second compound 3.16 µM): > 10 µM
IC50 (second compound 10 µM): > 10 µM
viability, T/C [1]: 71.3%
viability, T/C [2]: 69.1%
viability, T/C [3]: 67.8%
viability, T/C [4]: 82.7%
viability, T/C [5]: 82.3%
viability, T/C [6]: 83.9%
viability, T/C [7]: 63.3%
viability, T/C [8]: 72.8%
viability, T/C [9]: 64.7%
viability, T/C [10]: 72%
viability, T/C [11]: 81.9%
viability, T/C [12]: 88.2%
viability, T/C [13]: 68.5%
viability, T/C [14]: 64.8%
viability, T/C [15]: 61.8%
viability, T/C [16]: 72.5%
viability, T/C [17]: 77.3%
viability, T/C [18]: 73.4%
viability, T/C [19]: 61.4%
viability, T/C [20]: 57.2%
viability, T/C [21]: 71.7%
viability, T/C [22]: 78.3%
viability, T/C [23]: 75.8%
viability, T/C [24]: 91.2%
viability, T/C [25]: 60.4%
viability, T/C [26]: 67.2%
viability, T/C [27]: 71.5%
viability, T/C [28]: 70.6%
viability, T/C [29]: 77.8%
viability, T/C [30]: 91%
viability, T/C [31]: 64.5%
viability, T/C [32]: 63.8%
viability, T/C [33]: 73.9%
viability, T/C [34]: 77.2%
viability, T/C [35]: 91.1%
viability, T/C [36]: 72.1%

CC(C)n1c(=O)n(C)c2cnc3cc(F)c(-c4ccc(OCCCN5CCCCC5)nc4)cc3c21 + Nc1ccc(C#CCN(C(=O)Cc2ncc(C(F)(F)F)cc2C(F)(F)F)c2ccc(F)cc2)nn1
IC50 (second compound 0.0316 µM): > 10 µM
IC50 (second compound 0.1 µM): > 10 µM
IC50 (second compound 0.316 µM): > 10 µM
IC50 (second compound 1 µM): > 10 µM
IC50 (second compound 3.16 µM): > 10 µM
IC50 (second compound 10 µM): > 10 µM
viability, T/C [1]: 95.3%
viability, T/C [2]: 94.5%
viability, T/C [3]: 96%
viability, T/C [4]: 108%
viability, T/C [5]: 82.6%
viability, T/C [6]: 75.6%
viability, T/C [7]: 95.7%
viability, T/C [8]: 114%
viability, T/C [9]: 87.6%
viability, T/C [10]: 100%
viability, T/C [11]: 95%
viability, T/C [12]: 69.8%
viability, T/C [13]: 112%
viability, T/C [14]: 89.5%
viability, T/C [15]: 98.9%
viability, T/C [16]: 119%
viability, T/C [17]: 80.8%
viability, T/C [18]: 73.8%
viability, T/C [19]: 108%
viability, T/C [20]: 104%
viability, T/C [21]: 113%
viability, T/C [22]: 104%
viability, T/C [23]: 92.2%
viability, T/C [24]: 72.7%
viability, T/C [25]: 101%
viability, T/C [26]: 95.7%
viability, T/C [27]: 104%
viability, T/C [28]: 98%
viability, T/C [29]: 98.3%
viability, T/C [30]: 76.4%
viability, T/C [31]: 117%
viability, T/C [32]: 121%
viability, T/C [33]: 120%
viability, T/C [34]: 103%
viability, T/C [35]: 109%
viability, T/C [36]: 81.8%

CCc1cc2c(N3CCc4c(cc(Cn5ccnc5)cc4-c4cn(C)nc4C(F)(F)F)C3=O)cc(C)nc2c(OC)n1 + Nc1ccc(C#CCN(C(=O)Cc2ncc(C(F)(F)F)cc2C(F)(F)F)c2ccc(F)cc2)nn1
IC50 (second compound 0.0316 µM): > 10 µM
IC50 (second compound 0.1 µM): > 10 µM
IC50 (second compound 0.316 µM): > 10 µM
IC50 (second compound 1 µM): > 10 µM
IC50 (second compound 3.16 µM): > 10 µM
IC50 (second compound 10 µM): 9.75 µM
viability, T/C [1]: 89.2%
viability, T/C [2]: 92.2%
viability, T/C [3]: 92.8%
viability, T/C [4]: 90.4%
viability, T/C [5]: 76%
viability, T/C [6]: 52.3%
viability, T/C [7]: 85.5%
viability, T/C [8]: 96.9%
viability, T/C [9]: 95.5%
viability, T/C [10]: 90.6%
viability, T/C [11]: 79.5%
viability, T/C [12]: 64.5%
viability, T/C [13]: 105%
viability, T/C [14]: 93.1%
viability, T/C [15]: 98%
viability, T/C [16]: 88.4%
viability, T/C [17]: 73.9%
viability, T/C [18]: 57.4%
viability, T/C [19]: 91.5%
viability, T/C [20]: 93.3%
viability, T/C [21]: 94%
viability, T/C [22]: 88.9%
viability, T/C [23]: 71.6%
viability, T/C [24]: 61.8%
viability, T/C [25]: 106%
viability, T/C [26]: 92.4%
viability, T/C [27]: 96.4%
viability, T/C [28]: 97.5%
viability, T/C [29]: 78.6%
viability, T/C [30]: 67.8%
viability, T/C [31]: 106%
viability, T/C [32]: 118%
viability, T/C [33]: 115%
viability, T/C [34]: 101%
viability, T/C [35]: 90.5%
viability, T/C [36]: 48.8%

CCc1cc2c(N3CCc4c(cc(Cn5ccnc5)cc4-c4cn(C)nc4C(F)(F)F)C3=O)ccnc2c(OC)n1 + Nc1ccc(C#CCN(C(=O)Cc2ncc(C(F)(F)F)cc2C(F)(F)F)c2ccc(F)cc2)nn1
IC50 (second compound 0.0316 µM): 9.57 µM
IC50 (second compound 0.1 µM): 9.93 µM
IC50 (second compound 0.316 µM): > 10 µM
IC50 (second compound 1 µM): > 10 µM
IC50 (second compound 3.16 µM): > 10 µM
IC50 (second compound 10 µM): > 10 µM
viability, T/C [1]: 109%
viability, T/C [2]: 97.5%
viability, T/C [3]: 91.4%
viability, T/C [4]: 104%
viability, T/C [5]: 80.4%
viability, T/C [6]: 48.8%
viability, T/C [7]: 91.1%
viability, T/C [8]: 109%
viability, T/C [9]: 103%
viability, T/C [10]: 105%
viability, T/C [11]: 86%
viability, T/C [12]: 49.8%
viability, T/C [13]: 98.8%
viability, T/C [14]: 107%
viability, T/C [15]: 102%
viability, T/C [16]: 91.1%
viability, T/C [17]: 84.8%
viability, T/C [18]: 59%
viability, T/C [19]: 95.6%
viability, T/C [20]: 104%
viability, T/C [21]: 97.9%
viability, T/C [22]: 94.9%
viability, T/C [23]: 88.9%
viability, T/C [24]: 61%
viability, T/C [25]: 109%
viability, T/C [26]: 97.7%
viability, T/C [27]: 110%
viability, T/C [28]: 102%
viability, T/C [29]: 82.3%
viability, T/C [30]: 69.6%
viability, T/C [31]: 105%
viability, T/C [32]: 99.6%
viability, T/C [33]: 107%
viability, T/C [34]: 108%
viability, T/C [35]: 82.9%
viability, T/C [36]: 57.8%

COc1cc2cc(C(=O)CCC(=O)O)sc2cc1OC + Nc1ccc(C#CCN(C(=O)Cc2ncc(C(F)(F)F)cc2C(F)(F)F)c2ccc(F)cc2)nn1
IC50 (second compound 0.0316 µM): > 10 µM
IC50 (second compound 0.1 µM): > 10 µM
IC50 (second compound 0.316 µM): > 10 µM
IC50 (second compound 1 µM): > 10 µM
IC50 (second compound 3.16 µM): > 10 µM
IC50 (second compound 10 µM): > 10 µM
viability, T/C [1]: 109%
viability, T/C [2]: 107%
viability, T/C [3]: 123%
viability, T/C [4]: 93.5%
viability, T/C [5]: 105%
viability, T/C [6]: 104%
viability, T/C [7]: 112%
viability, T/C [8]: 90.6%
viability, T/C [9]: 101%
viability, T/C [10]: 95.5%
viability, T/C [11]: 101%
viability, T/C [12]: 107%
viability, T/C [13]: 90.7%
viability, T/C [14]: 101%
viability, T/C [15]: 94.9%
viability, T/C [16]: 100%
viability, T/C [17]: 114%
viability, T/C [18]: 106%
viability, T/C [19]: 97.1%
viability, T/C [20]: 125%
viability, T/C [21]: 108%
viability, T/C [22]: 102%
viability, T/C [23]: 91.5%
viability, T/C [24]: 95.6%
viability, T/C [25]: 114%
viability, T/C [26]: 115%
viability, T/C [27]: 115%
viability, T/C [28]: 83.2%
viability, T/C [29]: 92.5%
viability, T/C [30]: 120%
viability, T/C [31]: 122%
viability, T/C [32]: 128%
viability, T/C [33]: 122%
viability, T/C [34]: 113%
viability, T/C [35]: 155%
viability, T/C [36]: 110%
